For 24 molecules, EC50, Emax and IC50 results are on record in patent publication US8247573B2, “Substituted N-(2-mercaptopyridin-3-yl)amides as KCNQ2/3 modulators” (Gruenenthal GmbH, priority 2009, dated 2012).

This assay has as its target T1, KCNQ2/3 channels (Homo sapiens, UniProt O43525+O43526).
T1 construct: expressed in transfected cells; host or cells: CHO-K1
In words: Fluorescence assay using a voltage-sensitive dye (fluorimetry). It counts as cell-based. The note with it: CHO-K1 cells expressing KCNQ2/3; for EC50: agonistic activity; for Emax: relative to retigabine = 100%, negative values = antagonistic, read-out: Fluorimetry % efficacy (I/EC50, retigabine = 100%); for IC50: antagonistic activity. The protocol:
Pharmacological Experiments Fluorescence Assay Using a Voltage-Sensitive Dye
Human CHO-K1 cells expressing KCNQ2/3 channels are cultivated adherently at 37° C., 5% CO2 and 95% humidity in cell culture bottles (e.g. 80 cm^2 TC flasks, Nunc) with DMEM-high glucose (Sigma Aldrich, D7777) including 10% FCS (PAN Biotech, e.g. 3302-P270521) or alternatively MEM Alpha Medium (1×, liquid, Invitrogen, #22571), 10% foetal calf serum (FCS) (Invitrogen, #10270-106, heat-inactivated) and the necessary selection antibiotics.
Before being seeded out for the measurements, the cells are washed with a 1×DPBS buffer without Ca^2+/Mg^2+ (e.g. Invitrogen, #14190-094) and detached from the bottom of the culture vessel by means of Accutase (PAA Laboratories, #L11-007) (incubation with Accutase for 15 min at 37° C.). The cell count then present is determined using a CASY™ cell counter (TCC model, Schärfe System) in order subsequently to apply 20,000 to 30,000 cells/well/100 μl of the described nutrient medium, depending on density optimisation for the individual cell line, to 96-well measuring plates of the Corning™ CellBIND™ type (flat clear-bottom black polystyrene microplates, #3340). Incubation is then carried out for one hour at room temperature, without gassing or adjusting the humidity, followed by incubation for 24 hours at 37° C., 5% CO2 and 95% humidity.
The voltage-sensitive fluorescent dye from the Membrane Potential Assay Kit (Red™ bulk format part R8123 for FLIPR, MDS Analytical Technologies™) is prepared by dissolving the contents of a vessel of Membrane Potential Assay Kit Red Component A in 200 ml of extracellular buffer (ES buffer, 120 mM NaCl, 1 mM KCl, 10 mM HEPES, 2 mM CaCl2, 2 mM MgCl2, 10 mM glucose; pH 7.4). After removal of the nutrient medium, the cells are washed with 200 μl of ES buffer, then covered with a layer of 100 μl of the dye solution prepared above and incubated for 45 min at room temperature with exclusion of light.
The fluorescence measurements are carried out with a BMG Labtech FLUOstar™, BMG Labtech NOVOstar™ or BMG Labtech POLARstar™ instrument (525 nm excitation, 560 nm emission, bottom-read mode). After incubation of the dye, 50 μl of the substances to be tested in the desired concentrations, or 50 μl of ES buffer for control purposes, are introduced into separate cavities of the measuring plate and incubated for 30 min at room temperature whilst being shielded from light. The fluorescence intensity of the dye is then measured for 5 min and the fluorescence value F1 of each well is thus determined at a given, constant time. 15 μl of a […] KCl solution […] are then added to each well. The change in fluorescence is subsequently measured until all relevant measured values have been obtained (mainly […]). At a given time after KCl application, a fluorescence value F2 is determined, in this case at the time of the fluorescence peak.
For calculation, the fluorescence intensity F2 is compared with the fluorescence intensity F1, and the agonistic activity of the target compound on the potassium channel is determined therefrom. F2 and F1 are calculated as follows: […]
In order to determine whether a substance has an agonistic activity,
[formula] is determined by adding to the reaction batch only the buffer solution instead of the substance to be tested, determining the value F1K of the fluorescence intensity, adding the potassium ions as described above and measuring a value F2K of the fluorescence intensity. Then F2K and F1K are calculated as follows: […]
A substance has an agonistic activity on the potassium channel if
Independently of the comparison of
[formula] it is also possible to conclude that a target compound has an agonistic activity if an increase in
[formula] is to be observed as the dosage of the target compound increases.
Calculations of EC50 values are carried out with the aid of Prism v4.0 software (GraphPad Softwares™).

What is called EC50 is the concentration needed to bring the measured effect to its halfway point. High values mean a need for much substance, low ones an effect from little substance. A word on the IC50: it is the concentration that inhibits the measured activity by half.

Each structure is given as a SMILES string.

`O=C(CC1CCCCC1)Nc1cccnc1SCCS(=O)(=O)c1ccccc1` [Example 1, N-[2-[2-(Benzenesulfonyl)-ethylsulfanyl]-pyridin-3-yl]-2-cyclohexyl acetamide]: the EC50 worked out at 95 nM and the Emax was 172%. Regarding `O=C(CC1CCCCC1)Nc1cccnc1SCCS(=O)(=O)c1cccc(C(F)(F)F)c1` [Example 2, 2-Cyclohexyl-N-[2-[2-[[3-(trifluoromethyl)phenyl]sulfonyl]-ethylsulfanyl]-pyridin-3-yl]acetamide], a half-maximal response (EC50) required 27 nM and the Emax was 142%. On to `O=C(Nc1cccnc1SCCS(=O)(=O)c1ccccc1)c1ccccc1` [Example 4, N-[2-[2-(Benzenesulfonyl)-ethylsulfanyl]-pyridin-3-yl]benzamide], for which the Emax is 55%. Take `O=C(Nc1cccnc1SCCS(=O)(=O)c1ccccc1)c1ccc(F)c(F)c1` [Example 5, N-[2-[2-(Benzenesulfonyl)-ethylsulfanyl]-pyridin-3-yl]-3,4-difluorobenzamide]: the EC50 was determined as 469 nM and the Emax came to 129%. For `O=C(CCC1CCCCC1)Nc1cccnc1SCCS(=O)(=O)c1ccccc1` [Example 6, N-[2-[2-(Benzenesulfonyl)-ethylsulfanyl]-pyridin-3-yl]-3-cyclohexyl propionamide] the same measures were 76 nM and 225%. Take `O=C(Cc1cccs1)Nc1cccnc1SCCS(=O)(=O)c1ccccc1` [Example 7, N-[2-[2-(Benzenesulfonyl)-ethylsulfanyl]-pyridin-3-yl]-2-thiophen-2-yl acetamide]: the EC50 was found to be 424 nM and the Emax is 125%. `Cc1cc(C)cc(C(C)C(=O)Nc2cccnc2SCCS(=O)(=O)c2ccccc2)c1` (stereo not drawn) [Example 8, N-[2-[2-(Benzenesulfonyl)-ethylsulfanyl]-pyridin-3-yl]-2-(3,5-dimethylphenyl)propionamide]: the IC50 is 322 nM and the Emax was -68%. Turning to `COc1ccccc1CC(=O)Nc1cccnc1SCCS(=O)(=O)c1cccc(C(F)(F)F)c1` [Example 9, 2-(2-Methoxyphenyl)-N-[2-[2-[[3-(trifluoromethyl)phenyl]sulfonyl]-ethylsulfanyl]-pyridin-3-yl]acetamide], it took 192 nM to reach half-maximal inhibition (IC50) and the Emax was -45%. With `COc1ccc(CC(=O)Nc2cccnc2SCCS(=O)(=O)c2cccc(C(F)(F)F)c2)cc1` [Example 10, 2-(4-Methoxyphenyl)-N-[2-[2-[[3-(trifluoromethyl)phenyl]sulfonyl]-ethylsulfanyl]-pyridin-3-yl]acetamide], the EC50 was found to be 55 nM and the Emax came to 74%. The matching figures for `COc1cccc(CC(=O)Nc2cccnc2SCCS(=O)(=O)c2cccc(C(F)(F)F)c2)c1` [Example 11, 2-(3-Methoxyphenyl)-N-[2-[2-[[3-(trifluoromethyl)phenyl]sulfonyl]-ethylsulfanyl]-pyridin-3-yl]acetamide]: 588 nM and 109%. For `O=C(Cc1ccccc1O)Nc1cccnc1SCCS(=O)(=O)c1cccc(C(F)(F)F)c1` [Example 12, 2-(2-Hydroxyphenyl)-N-[2-[2-[[3-(trifluoromethyl)phenyl]sulfonyl]-ethylsulfanyl]-pyridin-3-yl]acetamide] the same measures were 168 nM and 141%. As to `O=C(Cc1ccc(O)cc1)Nc1cccnc1SCCS(=O)(=O)c1cccc(C(F)(F)F)c1` [Example 13, 2-(4-Hydroxyphenyl)-N-[2-[2-[[3-(trifluoromethyl)phenyl]sulfonyl]-ethylsulfanyl]-pyridin-3-yl]acetamide], the Emax turned out to be 46%.

`O=C(CC1CCCC1)Nc1cccnc1SCCS(=O)(=O)c1cccc(C(F)(F)F)c1` [Example 14, 2-Cyclopentyl-N-[2-[2-[[3-(trifluoromethyl)phenyl]sulfonyl]-ethylsulfanyl]-pyridin-3-yl]acetamide]: the EC50 worked out at 45 nM and the Emax is 167%. Take `O=C(Nc1cccnc1SCCS(=O)(=O)c1cccc(C(F)(F)F)c1)c1cccs1` [Example 18, N-[2-[2-[[3-(Trifluoromethyl)phenyl]sulfonyl]-ethylsulfanyl]-pyridin-3-yl]-thiophene-2-carboxylic acid amide]: the EC50 stood at 457 nM and the Emax was 43%. As for `O=C(Nc1cccnc1SCCS(=O)(=O)c1cccc(C(F)(F)F)c1)C1CCCCC1` [Example 19, N-[2-[2-[[3-(Trifluoromethyl)phenyl]sulfonyl]-ethylsulfanyl]-pyridin-3-yl]-cyclohexane carboxylic acid amide], the Emax was -43%. As for `O=C(Cc1cccs1)Nc1cccnc1SCCSc1cccc(C(F)(F)F)c1` [Example 20, 2-Thiophen-2-yl-N-[2-[2-[[3-(trifluoromethyl)phenyl]sulfanyl]-ethylsulfanyl]-pyridin-3-yl]acetamide], a half-maximal response (EC50) required 180 nM and the Emax is 97%. For `O=C(Cc1cccs1)Nc1cccnc1SCCSc1ccccc1` [Example 21, N-[2-(2-Phenylsulfanyl-ethylsulfanyl)-pyridin-3-yl]-2-thiophen-2-yl acetamide] the same measures were 83 nM and 152%. For `O=C(Cc1cccs1)Nc1cccnc1SCCOc1cccc(C(F)(F)F)c1` [Example 22, 2-Thiophen-2-yl-N-[2-[2-[3-(trifluoromethyl)-phenoxy]-ethylsulfanyl]-pyridin-3-yl]acetamide] the same measures were 732 nM and 155%.

Consider `O=C(Cc1cccs1)Nc1cccnc1SCCCc1cccc(C(F)(F)F)c1` [Example 23, 2-Thiophen-2-yl-N-[2-[3-[3-(trifluoromethyl)phenyl]-propylsulfanyl]-pyridin-3-yl]acetamide], for which the midpoint of the response, the EC50, lay at 157 nM and the Emax is 165%. The matching figures for `O=C(Cc1ccc2ccccc2c1)Nc1cccnc1SCCS(=O)(=O)c1cccc(C(F)(F)F)c1` [Example 24, 2-Naphthalen-2-yl-N-[2-[2-[[3-(trifluoromethyl)phenyl]sulfonyl]-ethylsulfanyl]-pyridin-3-yl]acetamide]: 153 nM and 84%. The matching figures for `O=C(CCCc1ccccc1)Nc1cccnc1SCCS(=O)(=O)c1cccc(C(F)(F)F)c1` [Example 25, 4-Phenyl-N-[2-[2-[[3-(trifluoromethyl)phenyl]sulfonyl]-ethylsulfanyl]-pyridin-3-yl]-butyramide]: 71 nM and 170%. For `O=C(CCc1cccs1)Nc1cccnc1SCCS(=O)(=O)c1cccc(C(F)(F)F)c1` [Example 26, 3-Thiophen-2-yl-N-[2-[2-[[3-(trifluoromethyl)phenyl]sulfonyl]-ethylsulfanyl]-pyridin-3-yl]propionamide] the same measures were 123 nM and 82%. Regarding `O=C(CCc1ccccc1)Nc1cccnc1SCCS(=O)(=O)c1cccc(C(F)(F)F)c1` [Example 27, 3-Phenyl-N-[2-[2-[[3-(trifluoromethyl)phenyl]sulfonyl]-ethylsulfanyl]-pyridin-3-yl]propionamide], the midpoint of the response, the EC50, lay at 208 nM and the Emax is 112%. As to `O=C(CCC1CCCC1)Nc1cccnc1SCCS(=O)(=O)c1cccc(C(F)(F)F)c1` [Example 28, 3-Cyclopentyl-N-[2-[2-[[3-(trifluoromethyl)phenyl]sulfonyl]-ethylsulfanyl]-pyridin-3-yl]propionamide], a half-maximal response (EC50) required 277 nM and the Emax was found to be 152%.
